Molecules are shown by their SMILES. Non-standard residues stand in square brackets, D forms with d. Residues, ends and D or L forms follow the SMILES beside them.

The target of one series is T1, Aβ(1–42) monomers (Homo sapiens, UniProt P05067).
T1 construct: N-terminally biotinylated Aβ(1–42) monomers were immobilized on streptavidin biosensors; purchased Bachem (Heidelberg, Germany)
Description: Biolayer interferometry (BLI) KD determination. The format is binding. The settings on record: N-terminally biotinylated Aβ(1–42) immobilised on streptavidin biosensors, 20 mM sodium phosphate pH 7.4, steady state, Langmuir 1:1 model, mean ± SD of triplicate. The method, then:
BLI experiments were performed using an Octet RED96 instrument (fortéBIO, PALL Life Science, Menlo Park, USA). N-terminally biotinylated Aβ(1–42) was dissolved in HFIP, lyophilized and dissolved in 2 mM aqueous sodium hydroxide (1 mg/ml) in order to destroy any pre-existing aggregates. The Aβ(1–42) solution was neutralized by dilution in running buffer (20 mM sodium phosphate buffer, pH 7.4) to a final concentration of 20 μg/ml and directly immobilized on Super Streptavidin biosensors (SSA) (fortéBIO, PALL Life Science, Menlo Park, USA) to a final depth of 3 nm. Ligand biosensors and reference biosensors were quenched with 20 μg/ml biotin for 7 min.
For KD determinations, the binding of a dilution series of DB3 (200, 100, 50, 25, 12.5, 6.25, 3.125 μM) or DBDB3 (20, 10, 5, 2.5, 1.25, 0.625, 0.3125 μM) was detected in parallel to the ligand biosensors and reference biosensors. A separate buffer cycle was used for double referencing. […]
Fig 4 KD determination of DB3 and DB3DB3 to monomeric Aβ using biolayer interferometry (BLI). N-terminally biotinylated Aβ(1–42) monomers were immobilized on streptavidin biosensors and the binding of DB3 and DB3DB3 was detected. Representative double referenced sensorgrams of a dilution series of DB3 (A) and DB3DB3 (B) are shown, including the equilibrium dissociation constants (KD) as means ± SD of data recorded in triplicate. […]

For series [1], the target named is T2, preformed Aβ(1–42) aggregates (Homo sapiens, UniProt P05067).
T2 construct: Aβ(1–42), N-terminally biotinylated Aβ(1–42) and FITC-Aβ(1–42) were purchased from Bachem; purchased Bachem (Heidelberg, Germany)
T2 sequence (P05067 672-713 limits assumed): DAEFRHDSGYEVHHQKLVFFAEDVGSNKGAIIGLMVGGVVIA
Description: Aβ aggregate disassembly ELISA. It is filed as biochemical. The note with it: 400 nM Aβ(1–42) preincubated 22 h at 37°C, then with peptide 22 h (24 h) at 37°C, ELISA, triplicate. The method, then: Freshly dissolved monomeric Aβ(1–42) (400 nM in 500 mM Tris-buffer pH 7.4) was incubated in a humidity chamber for 22 h at 37°C in order to preform Aβ(1–42) aggregates. These preformed aggregates were coincubated with D-peptide in different concentrations (0.01, 0.05, 0.1, 0.5, 1, 5, 10, 50, 100 μM for DB3 or with half of the molar concentrations in case of DB3DB3) for additional 22 h at 37°C. The content of Aβ aggregates was measured and evaluated in the same way as the aggregation inhibition ELISA.
Fig 5 Inhibition of Aβ fibril formation and Aβ aggregation disassemble by DB3 and DB3DB3. A) Monomeric Aβ(1–42) (400 nM) was mixed with different concentrations of DB3 (0.01, 0.05, 0.1, 0.5, 1, 5, 10, 50, 100 μM) and the aggregation state of Aβ was analyzed using an Aβ aggregate specific ELISA. For DB3DB3 half of the molar concentrations compared to DB3 were used. Aβ without DB3 and DB3DB3 addition was taken as control. For DB3 an EC50 of 6 μM was calculated using a logistic fit model. DB3DB3 inhibited the formation of Aβ fibrils more efficiently with an EC50 of 7 nM. B) The disassembly properties of DB3 and DB3DB3 were measured using an Aβ aggregation specific ELISA. Monomeric Aβ(1–42) (400 nM) was preincubated in order to form fibrils and mixed with nine different concentrations of DB3 (0.01, 0.05, 0.1, 0.5, 1, 5, 10, 50, 100 μM). For DB3DB3, the molar concentrations were half those used for DB3. […] DB3DB3 disassembled Aβ aggregates at the lowest concentration […]. Thus, the EC50 could not be determined, but is < 10 nM. All data were determined in triplicate. The Mann-Whitney-U-test was performed for statistical analysis. * p< 0.05; ** p < 0.01; *** p < 0.001
The Aβ aggregate disassembly ELISA was used to analyze the effect of DB3 and DB3DB3 on preformed Aβ aggregates (Fig 5B). […] The Aβ aggregates specific ELISA was used to quantify Aβ aggregates. […] The results of measured Aβ aggregates normalized to the Aβ control were plotted against the peptide concentration. The EC50 was calculated by a logarithmic dose response function.

The subject of the next series is PC12 cells. Description: MTT cell viability assay. The format is cell-based, rat. The note with it: 5 μM peptide without Aβ, 24 h. (In general: Tetrazolium dyes change colour on reduction, which living cells bring about.)

T1 sequence (P05067 672-713 limits assumed): as above
Description for PC12 cells: Rat pheochromocytoma PC12 cells (Leibniz Institute DSMZ, Braunschweig, Germany) were cultivated in DMEM medium supplemented with 10% fetal bovine serum and 5% horse serum. 10,000 cells per well were seeded on collagen-coated 96 well plates (Gibco, Life technology, Carlsberg, USA) and incubated in a 95% humidified atmosphere with 5% CO2 at 37°C for 24 h. […] DB peptide was then added at different concentrations and incubated for further 40 min at 21°C and 600 rpm agitation before addition to the PC12 cells. […] Cell viability was then measured using the Cell proliferation Kit I (MTT) (Roche, Basel, Switzerland) according to the manufacturer’s instruction. The absorbance of the formazan product was determined by measuring at 570 nm after subtracting the absorption at 660 nm. For absorption measurements, a Polarstar Optima plate reader (BMG, Offenburg, Germany) was used. All results were normalized to cells that were treated with buffer only.
The cell viability assay was performed using PC12 cells in a MTT test. […] The absorption of buffer treated cells was set to 100% cell viability. […] The Mann-Whitney-U-test was used for statistical analysis. * p < 0.05; ** p < 0.01; *** p < 0.001.

`CC[C@@H](C)[C@@H](NC(=O)[C@H]1CCCN1C(=O)[C@H](N)CCCNC(=N)N)C(=O)N[C@@H](C(=O)N[C@H](CCCNC(=N)N)C(=O)N[C@H](CC(C)C)C(=O)N[C@H](CCCNC(=N)N)C(=O)N[C@@H](C(=O)N[C@H](Cc1c[nH]cn1)C(=O)N[C@H](CCC(N)=O)C(=O)N[C@H](CC(N)=O)C(=O)N[C@H](CCCNC(=N)N)C(N)=O)[C@H](C)O)[C@H](C)O` [DB3] (H-[dR][dP][dI][dT][dR][dL][dR][dT][dH][dQ][dN][dR]-NH2) displayed a dissociation constant (Kd) on Aβ(1–42) monomers of 74.7 µM. The compound also had an EC50 in series [1] of 2.5 µM. In addition, the “effect of peptide alone on PC12 cell viability” value with PC12 cells is on record as “not toxic”.

One may read the Kd as the constant that tells how readily two partners part at equilibrium. In general, EC50 refers to the concentration needed to bring the measured effect to its halfway point. Read a high EC50 as a need for much substance.

The values above are taken from PMC4841555, “Optimization of the All-D Peptide D3 for Aβ Oligomer Elimination” (PLoS ONE, 2016).
